Laboratory results published in ChEMBL document CHEMBL1142237, “Cytotoxic triterpenoid saponins of Albizia gummifera from the Madagascar rain forest” (J Nat Prod, 2007).

Tests used:
Format in all cases: functional, cell-based
[1] = system: A2780; experiment: Antiproliferative activity against human A2780 cells after 96 hrs; details: A2780, 96 h
[2] = system: MDA-MB-435; experiment: Antiproliferative activity against human MDA-MB-435 cells after 96 hrs; details: MDA-MB-435, 96 h
[3] = system: HT-29; experiment: Antiproliferative activity against human HT29 cells after 96 hrs; details: HT-29, 96 h
[4] = Antiproliferative activity against human H522-T1 cells after 96 hrs; details: H522-T1, 96 h
[5] = system: U-937; experiment: Antiproliferative activity against human U937 cells after 96 hrs; details: U-937, 96 h

- IC50 [1]: 0.26 µM
- IC50 [2]: 0.48 µM
- IC50 [3]: 0.61 µM
- IC50 [5]: 0.29 µM
Compound: C=C[C@](C)(CC/C=C(\C)C(=O)O[C@H]1[C@H](O)[C@@H](O)[C@H](O[C@](C)(C=C)CC/C=C(\C)C(=O)O[C@H]2[C@H](O)[C@@H](O)[C@H](O[C@](C)(C=C)CC/C=C(/C)C(=O)O[C@H]3C[C@]4(C(=O)O[C@@H]5O[C@H](CO)[C@@H](O)[C@H](O)[C@H]5O[C@@H]5O[C@@H](C)[C@H](O[C@@H]6OC[C@@H](O)[C@H](O)[C@H]6O)[C@@H](O)[C@H]5O)[C@H](O)C[C@]5(C)C(=CC[C@@H]6[C@@]7(C)CC[C@H](O[C@@H]8O[C@H](CO[C@@H]9O[C@H](C)[C@H](O)[C@H](O)[C@H]9O)[C@@H](O)[C@H](O)[C@H]8O[C@@H]8O[C@H](CO)[C@@H](O)[C@H](O)[C@H]8O)C(C)(C)C7CC[C@]65C)[C@@H]4CC3(C)C)O[C@@H]2C)O[C@@H]1C)O[C@@H]1O[C@H](C)[C@@H](O)[C@H](O)[C@H]1O (stereo not given in full) [GUMMIFERAOSIDE C]
- IC50 [4]: 0.64 µM
